Measured values as given in PMC9241057, “Ru(II)arene(N^N bpy/phen)-based RAPTA complexes for in vitro anti-tumour activity in human glioblastoma cancer cell lines and in vivo toxicity studies in a zebrafish model” (RSC Advances, 2022).

Columns and labels:
[1] = target: bovine serum albumin (BSA) (Bos taurus, UniProt P02769); assay: BSA binding study, tryptophan emission quenching; details: for n, number of binding sites (BSA): Scatchard equation; for kq, quenching rate constant (BSA): from KBSA and τo (1 × 10^−8 s)
Description: The KBSA of the complexes was obtained from Stern–Volmer plots by applying the well-known Stern–Volmer equation (Fig. S4 ^†). On the other hand, the quenching constants (kq) of 6.3 × 10^14 M^−1 s^−1 and 1.8 × 10^14 M^−1 s^−1 arising from biomolecular interactions were evaluated from KBSA and τo (1 × 10^−8 s) for the complexes 4c and 4d, correspondingly (Table S3 ^†). […]
Kapp × [Complex]50 = kEtBr × [EtBr]⋯⋯⋯(iii) […]
(§1) Stern-Volmer equation was followed for quantitative determination of the Stern-Volmer quenching constant (K SV).4 Origin (8.5) software was used to plot the fluorescence data to obtain linear plot of I0/I vs. [complex]. The value of KSV was calculated from the following […]
Where I0 = fluorescence intensity in absence of complex and I = fluorescence intensities in presence of complex of concentration [Q].
Protein binding studies 5
The main component is serum albumin proteins in drug transport and metabolism, as we all know. The interaction of the complex with […] serum albumin (BSA) was examined using a tryptophan emission quenching experiment. The association of the RAPTA complexes 4c and 4d with the protein BSA was detected using a tryptophan emission quenching assay. […]
concentrations gradually.
Origin Lab, version 8.5 was […]
equation (v) given below: […]

EtBr-bound DNA (Ct-DNA) = assay: EtBr displacement assay (fluorescence); format: binding, calf; details: for Ksv, Stern-Volmer quenching constant: EtBr-bound DNA; for Kapp, apparent DNA binding constant: competitive displacement of EtBr
Description: Ethidium bromide displacement assay […]
bromide (EtBr) displacement experiment was used.3 Using ethidium bromide (EtBr) as a spectral probe in 5 mM Tris-HCl buffer, the apparent binding constant (K app) of the RAPTA complex 4c to Ct-DNA was determined at pH = 7.4. Because the fluorescence of EtBr was quenched by the solvent molecules, it was unable to show any fluorescence in its free state.
However, in the presence of Ct-DNA, its fluorescence intensity began to increase, indicating that EtBr binds to DNA […] in an intercalative manner. With increasing concentrations of […]
complexes displaced EtBr from CT-DNA grooves and were linked to the DNA base pairs itself. The values of the apparent binding constant (K app) were obtained by using the equation […]
Kapp × [Complex]50 = kEtBr × [EtBr]⋯⋯⋯(iii)
Where KEtBr is the EtBr binding constant (K EtBr = 1.0 x 107 M-1), and [EtBr] = 8 x 10^-6 M.
as §1
Where I0 = fluorescence intensity in absence of complex and I = fluorescence intensities in presence of complex of concentration [Q]. […]

T98G cells = assay: Neurosphere assay; format: cell-based, human; details: T98G, 20, 80 and 160 μM
Description: The neurosphere assay is one of the best methods for analysing the stem cell capacity of isolated brain cells.[23] The stem cell media was used to grow T98G cells through single-cell division within 3 days and subsequently the development of small-diameter “neurosphere-like” tumour spheres within 7 days. After 12–14 days of culture, a phase-contrast microscope was used to take the image of the tumour spheres. To promote differentiation, DMEM (containing 10% FBS) medium was added to the tumour spheres.
Fig. 5 Neurosphere assay using different concentrations: (b) 20 μM, (c) 80 μM and (d) 160 μM of complex 4c against the T98G cell line; (a) pre-treatment (concentration of 4c = 0 μM).
Serum-free DMEM/F-12 (1 : 1), B27 (1 : 50), EGF (20 μg L^−1), bFGF (20 μg L^−1), antibiotic (Gibco) were added to stem cell media. The cells were grown in a tissue culture incubator with 5% CO2 at […]. Serum-free media were changed twice a week.

zebrafish = assay: In vivo biodistribution study in zebrafish; details: 25 μg g^−1, 15 minutes
Description: Biodistribution and sequestration studies of complex 4c were conducted via the caudal vein injection into the zebrafish. After 15 minutes (25 μg g^−1) of exposure, the fish were sacrificed and different organs (brain, heart, kidney, intestine, notochord and digestive system) were dissected and the biodistribution of this complex into these organs was measured by fluorescence microscopy. A comparative study was performed with complex 4c and Evans blue dye and was analyzed by the confocal imaging of the tissue sections. From this experiment, it was observed that the sensitivity of zebrafish towards 4c was sequestered in the brain, heart, kidney, intestine, notochord and digestive system. […] Furthermore, this fluorescence-based interaction could provide us with an idea of the uptake mechanism via crossing the blood–brain barrier.
Zebrafish were anesthetized with 2-phenoxyethanol and injected with complex 4cvia […]. After injection at different times, the fish were sacrificed and the organs were collected and fixed with 4% paraformaldehyde and 4% glutaraldehyde, followed by dehydration with the gradient increase of ethanol (75%, 95%, 100%) for 20 min each, further with xylene for 1 h and then fixed in Paraplast. […] Sequestration of complex 4c in different organs was investigated by confocal fluorescence microscopy using a CLSM (Zeiss LSM 710) microscope. […]

Chain of bovine serum albumin (BSA) (P02769 25-607): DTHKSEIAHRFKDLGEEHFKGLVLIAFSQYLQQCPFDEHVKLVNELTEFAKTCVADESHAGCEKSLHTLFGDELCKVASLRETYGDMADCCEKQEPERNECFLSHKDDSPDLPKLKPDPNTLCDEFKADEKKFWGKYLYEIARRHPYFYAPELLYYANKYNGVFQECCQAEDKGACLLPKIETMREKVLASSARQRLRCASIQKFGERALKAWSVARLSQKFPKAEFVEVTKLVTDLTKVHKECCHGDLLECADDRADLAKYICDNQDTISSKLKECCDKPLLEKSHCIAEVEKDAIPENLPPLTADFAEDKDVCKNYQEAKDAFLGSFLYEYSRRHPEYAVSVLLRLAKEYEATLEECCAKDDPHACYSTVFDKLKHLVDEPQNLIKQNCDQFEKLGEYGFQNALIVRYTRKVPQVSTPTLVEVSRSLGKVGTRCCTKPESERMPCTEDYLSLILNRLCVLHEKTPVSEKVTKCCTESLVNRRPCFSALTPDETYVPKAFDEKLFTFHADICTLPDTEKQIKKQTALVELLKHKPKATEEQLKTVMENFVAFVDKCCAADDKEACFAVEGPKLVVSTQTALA

Structure (SMILES) | n, number of binding sites (BSA) [1] | K, binding constant with BSA ([1]; Scatchard plot) [M⁻¹] | kq, quenching rate constant (BSA) [1] [M⁻¹ s⁻¹] | Ksv, Stern-Volmer quenching constant (EtBr-bound DNA (Ct-DNA)) [M⁻¹] | Ksv, Stern-Volmer quenching constant (EtBr-bound DNA (Ct-DNA); Table S2) [M⁻¹] | Kapp, apparent DNA binding constant (EtBr-bound DNA (Ct-DNA)) [M⁻¹] | Kapp, apparent DNA binding constant (EtBr-bound DNA (Ct-DNA); Table S2) [M⁻¹] | effect on neurospheres (T98G cells) | accumulation in the brain (zebrafish) | sequestration in digestive system, kidney and notochord (zebrafish)
C1N2CN3CN1CP(C2)C3.Cc1ccc(C(C)C)cc1.F[P-](F)(F)(F)(F)F.F[P-](F)(F)(F)(F)F.[Ru+2].c1ccc(-c2ccnc3c2ccc2c(-c4ccccc4)ccnc23)cc1 [4d, [(η^6-p-Cymene)Ru^II(κ^2-N,N-4,7diphenylphenanthroline)(PTA)]·2PF6] | 1 | 52500 | 1.8e+14 |  |  |  |  |  |  | 
C1N2CN3CN1CP(C2)C3.Cc1ccc(C(C)C)cc1.Cc1ccnc2c1ccc1c(C)ccnc12.F[P-](F)(F)(F)(F)F.F[P-](F)(F)(F)(F)F.[Ru+2] [4c, [(η^6-p-Cymene)Ru^II(κ^2-N,N-4,7dimethylphenanthroline)(PTA)]·2PF6] | 1 |  | 6.3e+14 | 180 | 180 | 1.38e+06 | 1.38e+06 | Complete developmental neurotoxicity | accumulation was significant | maximum sequestration
